From PubChem BioAssay AID1259407 (Chemical Carcinogenesis Research Information System (CCRIS), 2018)
Activity calls are given as the source filed them. The rule behind the calls is not given here.

System: CCRIS mutagenicity, Ames/micronucleus/aberration tests
Assay: CCRIS mutagenicity studies
[1] = Test System: AMES SALMONELLA TYPHIMURIUM, Strain/Indicator: TA100, Metabolic Activation: RAT, LIVER, S-9, AROCLOR 1254, Method: STANDARD PLATE
[2] = Test System: AMES SALMONELLA TYPHIMURIUM, Strain/Indicator: TA1535, Metabolic Activation: RAT, LIVER, S-9, AROCLOR 1254, Method: STANDARD PLATE
[3] = Test System: MOUSE LYMPHOMA, Strain/Indicator: L5178Y (TK+/TK-), Metabolic Activation: NONE, Method: SUSPENSION/PLATE
[4] = Test System: AMES SALMONELLA TYPHIMURIUM, Strain/Indicator: TA98, Metabolic Activation: NONE, Method: STANDARD PLATE
[5] = Test System: AMES SALMONELLA TYPHIMURIUM, Strain/Indicator: TA98, Metabolic Activation: RAT, LIVER, S-9, AROCLOR 1254, Method: STANDARD PLATE
[6] = Test System: AMES SALMONELLA TYPHIMURIUM, Strain/Indicator: TA100, Metabolic Activation: NONE, Method: STANDARD PLATE
[7] = Test System: AMES SALMONELLA TYPHIMURIUM, Strain/Indicator: TA1535, Metabolic Activation: NONE, Method: STANDARD PLATE
[8] = Test System: AMES SALMONELLA TYPHIMURIUM, Strain/Indicator: TA1537, Metabolic Activation: NONE, Method: STANDARD PLATE
[9] = Test System: AMES SALMONELLA TYPHIMURIUM, Strain/Indicator: TA1537, Metabolic Activation: RAT, LIVER, S-9, AROCLOR 1254, Method: STANDARD PLATE
[10] = Test System: AMES SALMONELLA TYPHIMURIUM, Strain/Indicator: TA1538, Metabolic Activation: NONE, Method: STANDARD PLATE
[11] = Test System: AMES SALMONELLA TYPHIMURIUM, Strain/Indicator: TA1538, Metabolic Activation: RAT, LIVER, S-9, AROCLOR 1254, Method: STANDARD PLATE

SMILES | mutagenic call [1] | mutagenic call [2] | mutagenic call [3] | mutagenic call [4] | mutagenic call [5] | mutagenic call [6] | mutagenic call [7] | mutagenic call [8] | mutagenic call [9] | mutagenic call [10] | mutagenic call [11] | further results
OCC(Br)CBr (stereo not given) | active; positive | active; positive | active; positive | – | – | – | – | – | – | – | – | mutagenic call (Test System: AMES SALMONELLA TYPHIMURIUM, Strain/Indicator: TA98, Metabolic Activation: HAMSTER, LIVER, S-9, AROCLOR 1254 (10%), Method: PREINCUBATION): active; positive; mutagenic call (Test System: AMES SALMONELLA TYPHIMURIUM, Strain/Indicator: TA98, Metabolic Activation: NONE, Method: PREINCUBATION): active; positive; mutagenic call (Test System: AMES SALMONELLA TYPHIMURIUM, Strain/Indicator: TA98, Metabolic Activation: RAT, LIVER, S-9, AROCLOR 1254 (10%), Method: PREINCUBATION): active; positive; mutagenic call (Test System: AMES SALMONELLA TYPHIMURIUM, Strain/Indicator: TA100, Metabolic Activation: HAMSTER, LIVER, S-9, AROCLOR 1254 (10%), Method: PREINCUBATION): active; positive; mutagenic call (Test System: AMES SALMONELLA TYPHIMURIUM, Strain/Indicator: TA100, Metabolic Activation: NONE, Method: PREINCUBATION): active; positive; mutagenic call (Test System: AMES SALMONELLA TYPHIMURIUM, Strain/Indicator: TA100, Metabolic Activation: RAT, LIVER, S-9, AROCLOR 1254 (10%), Method: PREINCUBATION): active; positive; mutagenic call (Test System: AMES SALMONELLA TYPHIMURIUM, Strain/Indicator: TA102, Metabolic Activation: S-9, Method: STANDARD PLATE): active; positive; mutagenic call (Test System: AMES SALMONELLA TYPHIMURIUM, Strain/Indicator: TA1535, Metabolic Activation: HAMSTER, LIVER, S-9, AROCLOR 1254 (10%), Method: PREINCUBATION): active; positive; mutagenic call (Test System: AMES SALMONELLA TYPHIMURIUM, Strain/Indicator: TA1535, Metabolic Activation: NONE, Method: PREINCUBATION): active; positive; mutagenic call (Test System: AMES SALMONELLA TYPHIMURIUM, Strain/Indicator: TA1535, Metabolic Activation: RAT, LIVER, S-9, AROCLOR 1254 (10%), Method: PREINCUBATION): active; positive; mutagenic call (Test System: AMES SALMONELLA TYPHIMURIUM, Strain/Indicator: TA1537, Metabolic Activation: HAMSTER, LIVER, S-9, AROCLOR 1254 (10%), Method: PREINCUBATION): inactive; negative; mutagenic call (Test System: AMES SALMONELLA TYPHIMURIUM, Strain/Indicator: TA1537, Metabolic Activation: NONE, Method: PREINCUBATION): inactive; negative; mutagenic call (Test System: AMES SALMONELLA TYPHIMURIUM, Strain/Indicator: TA1537, Metabolic Activation: RAT, LIVER, S-9, AROCLOR 1254 (10%), Method: PREINCUBATION): inactive; negative; mutagenic call (Test System: AMES SALMONELLA TYPHIMURIUM, Strain/Indicator: TA2638, Metabolic Activation: S-9, Method: STANDARD PLATE): active; positive; mutagenic call (Test System: E. COLI, Strain/Indicator: WP2 (PKM101), Metabolic Activation: S-9, Method: STANDARD PLATE): active; positive; mutagenic call (Test System: E. COLI, Strain/Indicator: WP2 UVRA (PKM101), Metabolic Activation: S-9, Method: STANDARD PLATE): active; positive
COc1cc(N)c(OC)cc1N | active; positive | inactive; negative | – | inactive; negative | active; positive | inactive; negative | inactive; negative | inactive; negative | active; positive | active; positive | active; positive | –
CCOS(=O)(=O)c1ccc(C)cc1 | – | – | – | – | – | inactive; negative; authors describe results as weakly positive | active; positive | – | – | – | – | mutagenic call (End Point: IN VITRO MICRONUCLEUS, Test System: MOUSE LYMPHOMA L5178Y CELLS, Metabolic Activation: NONE): active; positive; mutagenic call (End Point: IN VITRO MICRONUCLEUS, Test System: MOUSE LYMPHOMA L5178Y CELLS, Metabolic Activation: RAT, LIVER, S-9): active; positive; mutagenic call (End Point: In vitro micronucleus, Test System: Chinese Hamster Ovary (CHO-WBL) cells, Metabolic Activation: None): active; positive (p<0.01); mutagenic call (Test System: AMES SALMONELLA TYPHIMURIUM, Strain/Indicator: TA100, Metabolic Activation: RAT, LIVER, S-9, Method: STANDARD PLATE): inactive; negative; authors describe results as weakly positive; mutagenic call (Test System: UDS HUMAN FIBROBLASTS, Strain/Indicator: THY INCORP (NON-S-PHASE), Metabolic Activation: NONE, Method: LIQUID SCINTILLATION COUNTING): active; positive
c1ccc2c(c1)Cc1c-2ccc2ccc3ccccc3c12 | active; positive | – | – | – | – | – | – | – | – | – | – | –
CN=NNC | – | – | – | – | – | – | active; positive | – | – | – | – | –
O=C1c2ccccc2CCc2ccccc21 | inactive; negative | inactive; negative | inactive; negative. reevaluation of results: negative | inactive; negative | inactive; negative | inactive; negative | inactive; negative | inactive; negative | inactive; negative | inactive; negative | inactive; negative | mutagenic call (Test System: AMES SALMONELLA TYPHIMURIUM, Strain/Indicator: TA98, Metabolic Activation: HAMSTER, LIVER, S-9, AROCLOR 1254, Method: STANDARD PLATE): inactive; negative; mutagenic call (Test System: AMES SALMONELLA TYPHIMURIUM, Strain/Indicator: TA100, Metabolic Activation: HAMSTER, LIVER, S-9, AROCLOR 1254, Method: STANDARD PLATE): inactive; negative; mutagenic call (Test System: AMES SALMONELLA TYPHIMURIUM, Strain/Indicator: TA1535, Metabolic Activation: HAMSTER, LIVER, S-9, AROCLOR 1254, Method: STANDARD PLATE): inactive; negative; mutagenic call (Test System: AMES SALMONELLA TYPHIMURIUM, Strain/Indicator: TA1537, Metabolic Activation: HAMSTER, LIVER, S-9, AROCLOR 1254, Method: STANDARD PLATE): inactive; negative; mutagenic call (Test System: AMES SALMONELLA TYPHIMURIUM, Strain/Indicator: TA1538, Metabolic Activation: HAMSTER, LIVER, S-9, AROCLOR 1254, Method: STANDARD PLATE): inactive; negative; mutagenic call (Test System: MOUSE LYMPHOMA, Strain/Indicator: L5178Y (TK+/TK-), Metabolic Activation: RAT, LIVER, S-9, AROCLOR 1254, Method: SUSPENSION/PLATE): inactive; negative. reevaluation of results: negative
